pIC50: −log10 of the molar value. The source made the active and inactive calls.
Each compound was assayed against T1, Proto-oncogene tyrosine-protein kinase Src (Homo sapiens, UniProt P12931) (assay: Inhibition of human purified recombinant pp60c-src tyrosine kinase).
T1 sequence (P12931 2-536 limits assumed): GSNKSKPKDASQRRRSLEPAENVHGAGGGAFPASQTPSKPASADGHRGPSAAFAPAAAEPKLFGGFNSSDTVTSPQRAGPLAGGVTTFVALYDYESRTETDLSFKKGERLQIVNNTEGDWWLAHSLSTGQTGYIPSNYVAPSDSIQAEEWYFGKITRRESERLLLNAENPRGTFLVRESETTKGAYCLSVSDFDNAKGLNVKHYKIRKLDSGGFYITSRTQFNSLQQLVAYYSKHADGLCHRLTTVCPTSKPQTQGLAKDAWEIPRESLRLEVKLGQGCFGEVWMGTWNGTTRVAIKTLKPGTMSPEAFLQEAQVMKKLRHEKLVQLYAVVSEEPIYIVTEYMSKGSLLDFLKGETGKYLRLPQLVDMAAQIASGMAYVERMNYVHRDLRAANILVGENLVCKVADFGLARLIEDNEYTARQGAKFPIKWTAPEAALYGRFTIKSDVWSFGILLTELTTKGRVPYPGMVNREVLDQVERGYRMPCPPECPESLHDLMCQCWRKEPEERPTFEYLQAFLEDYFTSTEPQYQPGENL
`O=C(Nc1cccc(O)c1)c1cc2cccc(O)c2cc1O` gave a pIC50 of 3.82.

The compounds below were run against T1, Proto-oncogene tyrosine-protein kinase Src (assay: Inhibition of human purified recombinant p60 c-Src tyrosine kinase at 100 uM).
For `O=C(NCc1ccccc1O)c1cc2cccc(O)c2cc1O`, the inhibition was 41%. `Oc1cc(O)cc(/C=C/c2ccc(O)c(O)c2)c1` showed an inhibition of 41%. For `O=C(NCc1ccc(O)cc1)c1cc2cccc(O)c2cc1O`, the inhibition was 49%.

The compounds below were run against T1, Proto-oncogene tyrosine-protein kinase Src (assay: Inhibition of human purified recombinant pp60c-src tyrosine kinase at 100 uM).
For `COC(=O)c1cc2cccc(O)c2cc1O`, the inhibition was 5%. Work on `O=C(Nc1cccc(O)c1)c1cc2ccc(O)cc2cc1O` yielded an inhibition of 89%. For `O=C(NCc1cccc(O)c1)c1cc2ccc(O)cc2cc1O`, the inhibition was 55%. `O=C(Nc1ccccc1O)c1cc2cccc(O)c2cc1O` showed an inhibition of 12%. Work on `O=C(Nc1ccc(O)cc1)c1cc2ccc(O)cc2cc1O` yielded an inhibition of 23%. With `O=C(NCc1ccc(O)cc1)c1cc2ccc(O)cc2cc1O` the inhibition was 42%. With `O=C(Nc1cccc(O)c1)c1cc2cccc(O)c2cc1O` the inhibition was 51%. `O=C(NCc1ccccc1O)c1cc2ccc(O)cc2cc1O` showed an inhibition of 42%. For `COc1ccccc1CNC(=O)c1cc2cccc(O)c2cc1O`, the inhibition was 13%. `COc1ccc(CNC(=O)c2cc3cccc(O)c3cc2O)cc1` gave an inhibition of 14%. Compound `O=C(Nc1cccc(O)c1)c1ccc2cc(O)ccc2c1` has an inhibition of 45%. With `COC(=O)c1cc2ccc(O)cc2cc1O` the inhibition was 47%. For `Cc1cc(O)c2c(c1)C(=O)c1cc(O)cc(O)c1C2=O`, the inhibition was 22%. `O=C(Nc1ccc(O)cc1O)c1cc2cccc(O)c2cc1O` showed an inhibition of 14%. In the case of `O=C(Nc1ccccc1O)c1cc2ccc(O)cc2cc1O`, the inhibition was 39%. `COc1cccc(NC(=O)c2cc3cccc(O)c3cc2O)c1` gave an inhibition of 33%. Compound `COc1ccc(NC(=O)c2cc3cccc(O)c3cc2O)cc1` has an inhibition of 35%.

What follows are compounds tested against T1, Proto-oncogene tyrosine-protein kinase Src (assay: nhibition of human purified recombinant pp60c-src tyrosine kinase at 100 uM (Inactive)).
In the case of `COc1ccccc1CNC(=O)c1cc2ccc(O)cc2cc1O`, the inhibition was “inactive”. In the case of `COC(=O)c1cc2ccccc2cc1N`, the inhibition was “inactive”.

From ChEMBL document CHEMBL1133076, “The design, synthesis and activity of non-ATP competitive inhibitors of pp60(c-src) tyrosine kinase. Part 1: hydroxynaphthalene derivatives” (Bioorg Med Chem Lett, 2000)
